Test results taken from patent US11339419B2, “Scavenger protein(s) for improved preservation of analyte detection sensor(s) and method(s) of use thereof” (Siemens Healthcare Diagnostics Inc., priority 2017, dated 2022).
Where “and” joins values, the source holds several entries; their conditions need not be identical. Identical values can stand only once.

Assays:
[1] = tested on: sarcosine oxidase (Toyobo); assay: Toyobo Sarcosine Oxidase Enzyme Absorbance with BSA and Proclin 300; type: biochemical
Description: Absorbance measurements of the sarcosine oxidase enzyme(s) were taken via spectrophotometer for each aqueous solution (represented as columns 1-5 in Tables 1-4—column 6 is a blank), the absorbance being directly proportional to the enzyme activity being measured-which for Tables 1-4 is sarcosine oxidase enzyme activity. Accordingly, the higher the absorbance measurement, the higher the enzyme activity of sarcosine oxidase. […] In addition, the mean values, standard deviations, and coefficients of variation are also presented for the enzyme activity/absorbance of each aqueous solution. All measurements were taken at 37° C.

creatininase (Toyobo) = assay: Toyobo Creatininase Enzyme Absorbance with BSA and MIT; type: biochemical
Description: Absorbance measurements of the creatininase enzyme(s) were taken via spectrophotometer for each aqueous solution (represented as columns 1-5 in Tables 5-8—column 6 is a blank), the absorbance being directly proportional to the enzyme activity being measured-which for Tables 5-8 is creatininase enzyme activity. Accordingly, the higher the absorbance measurement, the higher the enzyme activity of creatininase. Columns 7-11 represent five replicate readings in which the solution only contains BSA (i.e., there is no biocide(s) present in the solution). In addition, the mean values, standard deviations, and coefficients of variation are all presented for the enzyme activity/absorbance of each aqueous solution. All measurements were taken at 37° C.
As depicted in Table 6, creatininase (commercially offered for sale by Toyobo) enzyme activity is measured against various concentrations of MIT (biocide) and BSA (scavenger protein) over a period of 14 days (with absorbance measurement taken at 0, 4, and 14 days) for five different aqueous solutions (represented as columns 1-5—column 6 is a blank).

[2] = Day 0, BSA 5 mg/mL only, no Proclin 300, line of 0.7% Proclin 300
[3] = Day 0, BSA 5 mg/mL only, no Proclin 300, line of 1.4% Proclin 300
[4] = Day 0, BSA 25 mg/mL only, no Proclin 300, line of 0.7% Proclin 300
[5] = Day 0, BSA 25 mg/mL only, no Proclin 300, line of 1.4% Proclin 300
[6] = Day 0, BSA 50 mg/mL only, no Proclin 300, line of 0.7% Proclin 300
[7] = Day 0, BSA 50 mg/mL only, no Proclin 300, line of 1.4% Proclin 300
[8] = Day 0, 5 mg/mL BSA, no MIT (row of 50 ppm MIT)
[9] = Day 0, 5 mg/mL BSA, no MIT (row of 100 ppm MIT)
[10] = Day 0, 25 mg/mL BSA, no MIT (row of 50 ppm MIT)
[11] = Day 0, 25 mg/mL BSA, no MIT (row of 100 ppm MIT)
[12] = Day 0, 50 mg/mL BSA, no MIT (row of 50 ppm MIT)
[13] = Day 0, 50 mg/mL BSA, no MIT (row of 100 ppm MIT)
[14] = Day 0, 50 ppm MIT, 25 mg/mL BSA
[15] = Day 0, 50 ppm MIT, 50 mg/mL BSA
[16] = Day 0, 100 ppm MIT, 5 mg/mL BSA
[17] = Day 0, 100 ppm MIT, 25 mg/mL BSA
[18] = Day 0, 100 ppm MIT, 50 mg/mL BSA
[19] = Day 4, 50 ppm MIT, 25 mg/mL BSA
[20] = Day 4, 50 ppm MIT, 50 mg/mL BSA

bovine serum albumin [BSA]
Absorbance, solutions 7-11 [1, 2]: 1.419
MEAN absorbance, solutions 7-11 [1, 2]: 1.39
Absorbance, solutions 7-11 [1, 3]: 1.397 and 1.427 and 1.404
MEAN absorbance, solutions 7-11 [1, 3]: 1.35
Absorbance, solutions 7-11 [1, 4]: 1.443
MEAN absorbance, solutions 7-11 [1, 4]: 1.40
Absorbance, solutions 7-11 [1, 5]: 1.403 and 1.426 and 1.429 and 1.44
MEAN absorbance, solutions 7-11 [1, 5]: 1.37
Absorbance, solutions 7-11 [1, 6]: 1.418
MEAN absorbance, solutions 7-11 [1, 6]: 1.39
Absorbance, solutions 7-11 [1, 7]: 1.409 and 1.41 and 1.444
MEAN absorbance, solutions 7-11 [1, 7]: 1.37
MEAN absorbance, solutions 7-11 ([1]; Day 4, BSA 5 mg/mL only, no Proclin 300, line of 0.7% Proclin 300): 0.81
MEAN absorbance, solutions 7-11 ([1]; Day 4, BSA 5 mg/mL only, no Proclin 300, line of 1.4% Proclin 300): 0.86
MEAN absorbance, solutions 7-11 ([1]; Day 4, BSA 25 mg/mL only, no Proclin 300, line of 0.7% Proclin 300): 1.30
MEAN absorbance, solutions 7-11 ([1]; Day 4, BSA 25 mg/mL only, no Proclin 300, line of 1.4% Proclin 300): 1.32
MEAN absorbance, solutions 7-11 ([1]; Day 4, BSA 50 mg/mL only, no Proclin 300, line of 0.7% Proclin 300): 1.31
MEAN absorbance, solutions 7-11 ([1]; Day 4, BSA 50 mg/mL only, no Proclin 300, line of 1.4% Proclin 300): 1.32
MEAN absorbance, solutions 7-11 ([1]; Day 14, BSA 5 mg/mL only, no Proclin 300, line of 0.7% Proclin 300): 0.25
MEAN absorbance, solutions 7-11 ([1]; Day 14, BSA 5 mg/mL only, no Proclin 300, line of 1.4% Proclin 300): 0.29
MEAN absorbance, solutions 7-11 ([1]; Day 14, BSA 25 mg/mL only, no Proclin 300, line of 0.7% Proclin 300): 1.34
MEAN absorbance, solutions 7-11 ([1]; Day 14, BSA 25 mg/mL only, no Proclin 300, line of 1.4% Proclin 300): 1.34
MEAN absorbance, solutions 7-11 ([1]; Day 14, BSA 50 mg/mL only, no Proclin 300, line of 1.4% Proclin 300): 1.39
absorbance of the sarcosine oxidase enzyme compared to samples containing 0 mg/mL of BSA ([1]; days 4 and 14, 5, 25 and 50 mg/mL BSA, with Proclin 300): increased absorbance
sarcosine oxidase absorbance, solutions 7-11 ([1]; days 4 and 14, only BSA, no Proclin 300): increased (or at least maintained)
Creatininase Enzyme Absorbance, columns 7-11 (creatininase (Toyobo); [8]): 0.791 and 0.78
MEAN (columns 7-11) (creatininase (Toyobo); [8]): 0.59
Creatininase Enzyme Absorbance, columns 7-11 (creatininase (Toyobo); [9]): 0.806 and 0.802 and 0.845
MEAN (columns 7-11) (creatininase (Toyobo); [9]): 0.61
Creatininase Enzyme Absorbance, columns 7-11 (creatininase (Toyobo); [10]): 0.767
MEAN (columns 7-11) (creatininase (Toyobo); [10]): 0.58
Creatininase Enzyme Absorbance, columns 7-11 (creatininase (Toyobo); [11]): 0.751 and 0.768 and 0.799 and 0.806
MEAN (columns 7-11) (creatininase (Toyobo); [11]): 0.57
Creatininase Enzyme Absorbance, columns 7-11 (creatininase (Toyobo); [12]): 0.845
MEAN (columns 7-11) (creatininase (Toyobo); [12]): 0.64
Creatininase Enzyme Absorbance, columns 7-11 (creatininase (Toyobo); [13]): 0.735 and 0.782 and 0.778
MEAN (columns 7-11) (creatininase (Toyobo); [13]): 0.55
% Bias (creatininase (Toyobo); Day 0, 50 ppm MIT vs no MIT, 5 mg/mL BSA): 6.6%
% Bias (creatininase (Toyobo); Day 0, 50 ppm MIT vs no MIT, 25 mg/mL BSA): 8.6%
% Bias (creatininase (Toyobo); Day 0, 50 ppm MIT vs no MIT, 50 mg/mL BSA): 4.9%
Creatininase Enzyme Absorbance (creatininase (Toyobo); Day 0, 50 ppm MIT, 5 mg/mL BSA): 0.893 and 0.808 and 0.806 and 0.812 and 0.843
MEAN (creatininase (Toyobo); Day 0, 50 ppm MIT, 5 mg/mL BSA): 0.63
Creatininase Enzyme Absorbance (creatininase (Toyobo); [14]): 0.895 and 0.829 and 0.788 and 0.82 and 0.831
MEAN (creatininase (Toyobo); [14]): 0.63
Creatininase Enzyme Absorbance (creatininase (Toyobo); [15]): 0.905 and 0.862 and 0.847 and 0.863 and 0.895
MEAN (creatininase (Toyobo); [15]): 0.67
% Bias (creatininase (Toyobo); Day 0, 100 ppm MIT vs no MIT, 5 mg/mL BSA): 7.6%
% Bias (creatininase (Toyobo); Day 0, 100 ppm MIT vs no MIT, 25 mg/mL BSA): 10.4%
% Bias (creatininase (Toyobo); Day 0, 100 ppm MIT vs no MIT, 50 mg/mL BSA): 10.1%
Creatininase Enzyme Absorbance (creatininase (Toyobo); [16]): 0.922 and 0.849 and 0.843 and 0.844 and 0.859
MEAN (creatininase (Toyobo); [16]): 0.66
Creatininase Enzyme Absorbance (creatininase (Toyobo); [17]): 0.905 and 0.838 and 0.807 and 0.795 and 0.811
MEAN (creatininase (Toyobo); [17]): 0.63
Creatininase Enzyme Absorbance (creatininase (Toyobo); [18]): 0.867 and 0.794 and 0.799 and 0.792 and 0.771
MEAN (creatininase (Toyobo); [18]): 0.60
MEAN (columns 7-11) (creatininase (Toyobo); Day 4, 5 mg/mL BSA, no MIT (row of 50 ppm MIT)): 0.81
MEAN (columns 7-11) (creatininase (Toyobo); Day 4, 5 mg/mL BSA, no MIT (row of 100 ppm MIT)): 0.77
MEAN (columns 7-11) (creatininase (Toyobo); Day 4, 25 mg/mL BSA, no MIT (row of 50 ppm MIT)): 0.64
MEAN (columns 7-11) (creatininase (Toyobo); Day 4, 25 mg/mL BSA, no MIT (row of 100 ppm MIT)): 0.62
MEAN (columns 7-11) (creatininase (Toyobo); Day 4, 50 mg/mL BSA, no MIT (row of 50 ppm MIT)): 0.52
MEAN (columns 7-11) (creatininase (Toyobo); Day 4, 50 mg/mL BSA, no MIT (row of 100 ppm MIT)): 0.51
% Bias (creatininase (Toyobo); Day 4, 50 ppm MIT vs no MIT, 5 mg/mL BSA): −0.2%
% Bias (creatininase (Toyobo); Day 4, 50 ppm MIT vs no MIT, 25 mg/mL BSA): 1.5%
% Bias (creatininase (Toyobo); Day 4, 50 ppm MIT vs no MIT, 50 mg/mL BSA): 1.9%
Creatininase Enzyme Absorbance (creatininase (Toyobo); Day 4, 50 ppm MIT, 5 mg/mL BSA): 1.031 and 0.998 and 1.012 and 1.044 and 1.01
MEAN (creatininase (Toyobo); Day 4, 50 ppm MIT, 5 mg/mL BSA): 0.81
Creatininase Enzyme Absorbance (creatininase (Toyobo); [19]): 0.867 and 0.847 and 0.853 and 0.878 and 0.873
MEAN (creatininase (Toyobo); [19]): 0.65
Creatininase Enzyme Absorbance (creatininase (Toyobo); [20]): 0.737 and 0.728 and 0.749 and 0.75 and 0.765
MEAN (creatininase (Toyobo); [20]): 0.53
% Bias (creatininase (Toyobo); Day 4, 100 ppm MIT vs no MIT, 5 mg/mL BSA): 2.2%
% Bias (creatininase (Toyobo); Day 4, 100 ppm MIT vs no MIT, 25 mg/mL BSA): 5.6%
